# Reference: US20160264570A1, “METHOD OF BLOCKING TRANSMISSION OF MALARIAL PARASITE” (THE UNITED STATES OF AMERICA, AS REPRESENTED BY THE …, priority 2013, published 2016)
# Where two headings read alike, the source gives them in different places. Starred links: 1 amine or outer side, 2 acyl side, 3 side chain; linkers in the order of their positions; H or OH if unused. Positions of bridges follow the written chain, without caps; N, C: chain ends. Non-standard residues stand in square brackets, D forms with d. Residues, ends and D or L forms follow the SMILES beside them. Chains are numbered I, II in the order given. Actinocin(9to1) = Cc1c2oc3c(C)ccc(C(=O)[*:1])c3nc-2c(C(=O)[*:2])c(N)c1=O; NMeV = CN[C@H](C(=O)O)C(C)C; Sar = CNCC(=O)O
# Assays:
# HepG2 cells = assay: Cytotoxicity in mammalian HepG2 cell line; details: for Emax: HepG2, read-out: % Max response; for % Max response: HepG2
# [1] = tested on: P. falciparum strain 3D7 gametocytes; assay: alamarBlue gametocyte viability assay, strain 3D7
# [2] = tested on: P. falciparum strain HB3 gametocytes; assay: alamarBlue gametocyte viability assay, strain HB3; details: for fold more potent against HB3 compared to 3D7: gametocytes
# [3] = tested on: P. falciparum strain Dd2 gametocytes; assay: alamarBlue gametocyte viability assay, strain Dd2
# [4] = tested on: Asexual parasites of P. falciparum strain 3D7; assay: SYBR Green viability assay on asexual parasites; type: cell-based, Plasmodium falciparum; details: read-out: IC50 in viability assay using asexual parasites
# Plasmodium berghei ANKA = assay: Malaria mouse model of gametocyte transmission to mosquitoes (oocyst count); type: in vivo; details: mice, Anopheles stephensi
# Dd2 asexual parasites = details: compared to 3D7; ref [27]; cited from earlier work
# [5] = Table 2, Inactive = no significant activity at highest tested concentration (46 μM)
# [6] = Table 4, Inactive = no significant activity at highest tested concentration (46 μM)
# [7] = Plasmodium falciparum, 3D7, read-out: Gametocyte IC50
# [8] = Plasmodium falciparum, HB3, read-out: HB3-IC50
# [9] = Plasmodium falciparum, DD2, read-out: Dd2-IC50
# [10] = Homo sapiens, HepG2, read-out: IC50 (μM) in HepG2
# [11] = Homo sapiens, HepG2, read-out: IC50 (μM) in HepG2 cells
# [12] = Plasmodium falciparum, 3D7, read-out: 3D7-IC50
# [13] = Plasmodium falciparum, HB3, read-out: HB3-IC50, Table 3, 11 concentrations, 1:3 dilution, three times
# [14] = read-out: 3D7-IC50, Table 3, 11 concentrations, 1:3 dilution, three times
# [15] = read-out: Gametocyte IC50, mean of at least 3 independent experiments, P. falciparum 3D7 gametocyte
# [16] = read-out: HB3-IC50, Table 3, 11 concentrations, 1:3 dilution, three times
# [17] = read-out: Dd2-IC50, Table 3, 11 concentrations, 1:3 dilution, three times
# [18] = read-out: IC50 (μM) in HepG2, Table 2, Inactive = no significant activity at highest tested concentration (46 μM)
# [19] = read-out: IC50 (μM) in HepG2 cells, Table 4, Inactive = no significant activity at highest tested concentration (46 μM)
# [20] = Plasmodium falciparum, DD2, read-out: IC50 against Dd2 gametocytes
# [21] = Plasmodium falciparum, HB3, read-out: IC50 against HB3 gametocytes
"IC50 [1, 14] [nM]","IC50 [1, 15] [nM]",Compound,% Max response (HepG2 cells; Table 2) [%],% Max response (HepG2 cells; Table 4) [%],"IC50 [2, 16] [nM]","IC50 [3, 17] [nM]",further results
,,"Cc1c2oc3c(C)ccc(C(=O)N[C@@H]4C(=O)N[C@H](C(C)C)C(=O)N5CCC[C@H]5C(=O)N(C)CC(=O)N(C)[C@@H](C(C)C)C(=O)O[C@@H]4C)c3nc-2c(C(=O)N[C@@H]2C(=O)N[C@H](C(C)C)C(=O)N3CCC[C@H]3C(=O)N(C)CC(=O)N(C)[C@@H](C(C)C)C(=O)O[C@@H]2C)c(N)c1=O [Dactinomycin] (I: T[dV]P[Sar][NMeV] / II: T[dV]P[Sar][NMeV]; ester I:1-I:C, II:1-II:C; linker I:N-II:N via Actinocin(9to1))",,,,,"Emax (HepG2 cells; Homo sapiens): 1%; IC50 (μM) in HepG2 (HepG2 cells; [5]): Inactive; IC50 (μM) in HepG2 cells (HepG2 cells; [6]): Inactive; IC50 [1, 7]: 15 nM; IC50 [2, 8]: 19 nM; IC50 [3, 9]: 33 nM"
,,CC[C@@H](C(=O)[C@@H](C)[C@@H](O)[C@H](C)[C@@H]1O[C@@H]([C@@H](CC)C(=O)O)CC[C@@H]1C)[C@H]1O[C@]2(C=C[C@@H](O)[C@]3(CC[C@@](C)([C@H]4CC[C@](O)(CC)[C@H](C)O4)O3)O2)[C@H](C)C[C@@H]1C [Salinomycin sodium],,,,,"Emax (HepG2 cells; Homo sapiens): -69%; IC50 (HepG2 cells; [10]): 29.6 µM; IC50 (HepG2 cells; [11]): 29.6 µM; IC50 [1, 12]: 100 nM; IC50 [1, 7]: 194 nM; IC50 [2, 13]: 372 nM"
935,935,COc1ncc(-c2ccc3nccc(-c4ccnnc4)c3c2)cc1NS(=O)(=O)c1ccc(F)cc1F [GSK-458],33,33,332,1480,IC50 (μM) in HepG2 (HepG2 cells; [5]): Inactive; IC50 (μM) in HepG2 cells (HepG2 cells; [6]): Inactive
,,CCN(CC)C(=S)SSC(=S)N(CC)CC [Tetraethylthiuram disulfide],,,,,"IC50 [2, 8]: 148 nM; IC50 [3, 9]: 296 nM"
,,CN(C)c1ccc2nc3ccc(=[N+](C)C)cc-3sc2c1 [Methylene blue],,−20,,,"IC50 (μM) in HepG2 cells (HepG2 cells; [6]): Inactive; IC50 [1, 12]: 300 nM; IC50 [2, 8]: 935 nM; IC50 ([3]; Plasmodium falciparum, DD2, read-out: Dd2-IC50, Table 3, 11 concentrations, 1:3 dilution, three times): 526 nM; IC50 [3, 20]: 526 nM"
,,CCN(CC)CCCC(C)Nc1ccnc2cc(Cl)ccc12 (stereo not drawn) [Chloroquine diphosphate],,,,,"IC50 [1, 12]: 200 nM; IC50 [2, 8]: 935 nM; IC50 [3, 9]: 935 nM"
935,,Cl.Cl.Cl.Cl.Cl.Cl.N.N.N.N.N.N.N.N.N.N.N.N.N.N.[O-2].[O-2].[Ru+3].[Ru+3].[Ru+4] [Ruthenium red],,,264,526,
,,Cc1[nH]c2ccccc2c1CCNCc1ccc(/C=C/C(=O)NO)cc1 [Panobinostat],,−74,,,"IC50 (HepG2 cells; [11]): 0.372 µM; IC50 [1, 12]: 900 nM; IC50 [2, 21]: 118 nM; fold more potent against HB3 compared to 3D7 [2]: 7.9 fold; IC50 [3, 20]: 148 nM; times more potent against Dd2 compared to 3D7 ([3]; gametocytes): 6.3 times"
743,743,CC1(C)OC2=C(C(=O)c3ccccc3C2=O)[C@H](NCc2ccccc2)[C@@H]1O [CAY10581],−86,−86,662,2350,IC50 (HepG2 cells; [18]): 17.1 µM; IC50 (HepG2 cells; [19]): 17.1 µM
469,,Cc1cc(NC2CCCCC2)nc(-n2nc(C)cc2C)n1 [CyPPA],,,743,590,
,,"COc1cc(NC(C)CCCN)c2ncccc2c1 (stereo not drawn) [Primaquine, primaquine]",,,,,"IC50 (HepG2 cells; [11]): 17.8 µM; IC50 [2, 21]: 680 nM; IC50 [3, 20]: 1080 nM"
,,C#Cc1cccc(Nc2ncnc3cc(OC)c(OCCCCCCC(=O)NO)cc23)c1 [CUDC-101],,−76,,,"IC50 (HepG2 cells; [11]): 6.79 µM; IC50 [1, 12]: 800 nM; IC50 [2, 8]: 152 nM; fold more potent against HB3 compared to 3D7 [2]: 5.5 fold"
,,C/C=C1\NC(=O)[C@H]2CSSCC/C=C/[C@H](CC(=O)N[C@H](C(C)C)C(=O)N2)OC(=O)[C@H](C(C)C)NC1=O [Romidepsin],,,,,"Emax (HepG2 cells; Homo sapiens): -98%; IC50 (HepG2 cells; [10]): 0.074 µM; IC50 (HepG2 cells; [11]): 0.074 µM; IC50 [1, 12]: 200 nM; IC50 [1, 7]: 637 nM; IC50 [2, 13]: 148 nM"
300,345,C=CC1CN2CCC1CC2C(O)c1ccnc2ccc(OC)cc12.C=CC1CN2CCC1CC2C(O)c1ccnc2ccc(OC)cc12.O=S(=O)(O)O (stereo not drawn) [Quinine hemisulfate],2,2,235,83,IC50 (μM) in HepG2 (HepG2 cells; [5]): Inactive; IC50 (μM) in HepG2 cells (HepG2 cells; [6]): Inactive
300,372,CC1=C(CO)C(=O)O[C@@H]([C@@H](C)[C@H]2CC[C@H]3[C@@H]4C[C@H]5O[C@]56[C@@H](O)C=CC(=O)[C@]6(C)[C@H]4CC[C@]23C)C1 [Withaferin A],−80,−80,1330,372,IC50 (HepG2 cells; [18]): 9.35 µM; IC50 (HepG2 cells; [19]): 9.35 µM
743,743,CCN(CCO)CCCOc1ccc2c(Nc3cc(CC(=O)Nc4cccc(F)c4)[nH]n3)ncnc2c1 [AZD-1152-HQPA],11,11,1480,1480,IC50 (μM) in HepG2 (HepG2 cells; [5]): Inactive; IC50 (μM) in HepG2 cells (HepG2 cells; [6]): Inactive
,,CCN(CC)CCCC(C)Nc1ccnc2cc(Cl)ccc12 (stereo not drawn) [chloroquine],,,,,fold less potent against Dd2 asexual parasites (Dd2 asexual parasites): 10 fold; reduction of potency against Dd2 gametocytes compared to 3D7 [3]: 3.7 fold
,,COc1cc(NC(C)CCCN)c2ncccc2c1 (stereo not drawn) [Primaquine diphosphate],,,,,"IC50 [2, 8]: 679 nM; IC50 [3, 9]: 1080 nM"

Compound,"IC50 [1, 14] [nM]","IC50 [1, 15] [nM]",% Max response (HepG2 cells; Table 2) [%],% Max response (HepG2 cells; Table 4) [%],"IC50 [2, 16] [nM]","IC50 [3, 17] [nM]",further results
CC(=O)OC[C@H]1O[C@@H]([S-])[C@H](OC(C)=O)[C@@H](OC(C)=O)[C@@H]1OC(C)=O.CCP(CC)CC.[Au+] [Auranofin],935,935,−98,−98,1050,1180,IC50 (HepG2 cells; [18]): 9.35 µM; IC50 (HepG2 cells; [19]): 9.35 µM
CCC(=O)N1CCN(c2ccc(-n3c(=O)ccc4cnc5ccc(-c6cnc7ccccc7c6)cc5c43)cc2C(F)(F)F)CC1 [Torin-1],6620,,,,3720,5260,
Nc1ccc(-c2ccc3ncc4ccc(=O)n(-c5cccc(C(F)(F)F)c5)c4c3c2)cn1 [Torin 2],,8,−46,−46,15,12,IC50 [4]: 2.75 nM; oocyst production in mosquitoes (Plasmodium berghei ANKA; single 4 mg/kg dose i.v.): almost completely eliminated; oocyst production in mosquitoes (Plasmodium berghei ANKA; single dose of 2 mg/kg i.v.): significantly reduced; oocyst production in mosquitoes (Plasmodium berghei ANKA; two 4 mg/kg doses i.v.): completely blocked; cytotoxicity in HepG2 cells (HepG2 cells; at the highest tested concentration (46 μM)): partial cytotoxicity; IC50 (HepG2 cells; [18]): 9.35 µM; IC50 (HepG2 cells; [19]): 9.35 µM
CC[C@@H](C(=O)[C@@H](C)[C@@H](O)[C@H](C)[C@@H]1O[C@@H]([C@@H](CC)C(=O)O)CC[C@@H]1C)[C@H]1O[C@]2(C=C[C@@H](O)[C@]3(CC[C@@](C)([C@H]4CC[C@](O)(CC)[C@H](C)O4)O3)O2)[C@H](C)C[C@@H]1C [Salinomycin monosodium],100,,,,469,296,
Monensin sodium,200,254,40,40,264,372,IC50 (μM) in HepG2 (HepG2 cells): Inactive; IC50 (μM) in HepG2 cells (HepG2 cells): Inactive
S=C(SSC(=S)N1CCCCC1)N1CCCCC1 [Dicyclopentamethylenethiuram],200,,,,743,743,
Zinc pyrithione,,93,−99,−99,59,59,IC50 (HepG2 cells; [18]): 2.15 µM; IC50 (HepG2 cells; [19]): 2.15 µM
